{"source": "patent US8586620B2", "about": "“Substituted indole compounds having NOS inhibitory activity” (NeurAxon, Inc., priority 2005, dated 2013)", "key": {"CA1 hippocampal slices": {"system": "CA1 hippocampal slices", "assay": "Evoked field potentials in CA1 hippocampal slices after OGD", "type": "cell-based, rat", "conditions": "slices after 10 min OGD; compound 12 50 μM, 7-NI 100 μM; FIG. 16", "description": "Slice Preparation: Male Wistar rats, 180-200 gm, were anesthetized with halothane and decapitated. Their brains were removed and placed in artificial cerebral spinal fluid (ACSF) at 0.5° C. within 60 s of decapitation. […] Brains were hemisected and hippocampi were dissected out and sectioned into […] thick slices using a McIlwain Tissue chopper (Mickle Laboratory Engineering Co. Gomshall, GB). Sectioning was initiated approximately 1 mm from the rostral end of the hippocampus and approximately 12 slices were harvested from each hippocampus. Slices were distributed into groups in a rotational manner so that each group contained slices from all sectioned regions of the hippocampus. The hippocampal slices were placed on nylon mesh platforms in interface-type incubation chambers (6-8 slices per platform; 1 platform per chamber) for 90 min at 35° C. The ACSF in these chambers, and the atmosphere above it, was continuously gassed with 95% O2/5% CO2. […]\n(a) Preservation of Evoked Field Potentials: The efficacy of synaptic transmission in these slices was evaluated using electrophysiological techniques. […] Evoked potentials (EP) were recorded in the CA1 from the stratum pyrimidale using glass micropipettes (2-5 megohms) filled with 150 mM NaCl. Population spike (PS) amplitude was measured from the peak downward deflection to the midway point between the 2 positive peaks. […]"}, "[1]": {"system": "formalin-induced hind paw licking", "assay": "Formalin-induced paw licking in mice", "type": "in vivo", "conditions": "intraperitoneally 30 minutes before formalin, Phase II (20 to 30 minute), FIG. 5", "description": "Formalin Induced Hyperalgesia and Inflammation: In an experimental model of sustained inflammatory nociception associated with long term intracellular changes of nociceptive processing at the level of the spinal cord, mice or rats are subjected to a subplantar injection of formalin into a paw (Chapman et al., Brain Res. 697:258-261, 1995; Meller and Gebhart, Pain 52:127-136, 1993). Two distinct phases of spontaneous nociceptive behaviour exist: The first phase (Phase I) last about 5 minutes, followed by a second phase (Phase II), lasting approximately 40 minutes characterized by persistent shaking or licking of the injected paw (Fu et al., Neuroscience 101(4):1127-1135, 2000). Longer periods after injection of formalin results in the development of allodynia and hyperalgesia (1-4 weeks). […] Test compounds, including compound 12 and 7-NI, were dissolved in 1% DMSO/2% Tween 80/0.9% NaCl. Male or female ICR-derived mice weighing 23±2 g were housed in APEC® cages and maintained in a controlled temperature (22° C.-24° C.) and humidity (60%-80%) environment with 12 hr light-dark cycles for 1 week prior to use. Free access to standard lab chow and tap water was granted. […] The reduction of formalin-induced hind paw licking time was recorded during the following 20 to 30 minute period (Phase II)."}, "Hippocampal slices": {"system": "Hippocampal slices", "assay": "Mitochondrial metabolic activity in hippocampal slices after OGD, TTC staining", "type": "cell-based, rat", "conditions": "100 μM; 10 min OGD; control live normalized to 100%; n=5", "description": "Brain injury can be measured in brain sections by incubating sections of fresh brain in 2,3,5-triphenyltetrazolium chloride (TTC). TTC, which is colorless, is reduced by mitochondrial succinate dehydrogenase in living tissue to a red formazan product. Combinations of photography or scanning and image analysis are then used to measure the area of normal (red) and damaged (uncolored) tissue at the surface of each section face and estimate the extent of damage. The TTC staining technique has been further refined by members of the Experimental Stroke Group at IBS (Study Host: University of Ottawa, Canada) using a solvent to extract the colored formazan product from tissue sections and measured it spectrophotometrically, thus obtaining a simple, objective measure of damage (Preston and Webster, J. Neurosci. Meth. 94(2):187-92, 1999). […]\n(b) Preservation of Mitochondrial Metabolic Activity by compound 12 using TTC staining: Hippocampal slices exposed to 10 min OGD (control dead) retained 25±5% (n=5 groups of 4-5 slices) of the absorbance of slices not subjected to an insult (control live—normalized to 100%), whereas slices preincubated in 0.3 mM calcium 30 min prior to and during OGD retained 107±27% (n=5) of their absorbance (control protection). […]"}}, "note": "Entries after “also recorded” stand apart in the source; their conditions may differ.", "data": [{"smiles": "O=[N+]([O-])c1cccc2cn[nH]c12", "note": "[Compound 7-NI, 7-nitroindazole]", "values": [{"measurement": "preservation of population spike", "setting": "CA1 hippocampal slices", "value": "did not preserve population spike; also recorded: fiber volleys, but no PSs"}, {"measurement": "formalin-induced hind paw licking", "setting": "[1]", "value": "reduction in the frequency of paw licking"}, {"measurement": "absorbance retained (TTC staining)", "setting": "Hippocampal slices", "value": "81±18", "unit": "%"}]}]}
